Measurements from patent publication US20250320206A1, “STAT6 DEGRADERS” (Gilead Sciences, Inc., priority 2024, published 2025).

Experiments:
STAT6 = biological target: T1, STAT6 (Homo sapiens, UniProt P42226); test: Stat6 Degrader Assay (HiBiT based, HeLa LgBiT clone 4.14); assay type: cell-based; conditions: HeLa LgBiT clone 4.14 HiBiT-STAT6, 4-24 h incubation; values given for compounds with >80% Emax; geometric mean; read-out: STAT6 degradation DC50
T1 construct: These cells express endogenous STAT6; host or cells: HeLa LgBiT clone 4.14
T1 sequence (P42226 1-847): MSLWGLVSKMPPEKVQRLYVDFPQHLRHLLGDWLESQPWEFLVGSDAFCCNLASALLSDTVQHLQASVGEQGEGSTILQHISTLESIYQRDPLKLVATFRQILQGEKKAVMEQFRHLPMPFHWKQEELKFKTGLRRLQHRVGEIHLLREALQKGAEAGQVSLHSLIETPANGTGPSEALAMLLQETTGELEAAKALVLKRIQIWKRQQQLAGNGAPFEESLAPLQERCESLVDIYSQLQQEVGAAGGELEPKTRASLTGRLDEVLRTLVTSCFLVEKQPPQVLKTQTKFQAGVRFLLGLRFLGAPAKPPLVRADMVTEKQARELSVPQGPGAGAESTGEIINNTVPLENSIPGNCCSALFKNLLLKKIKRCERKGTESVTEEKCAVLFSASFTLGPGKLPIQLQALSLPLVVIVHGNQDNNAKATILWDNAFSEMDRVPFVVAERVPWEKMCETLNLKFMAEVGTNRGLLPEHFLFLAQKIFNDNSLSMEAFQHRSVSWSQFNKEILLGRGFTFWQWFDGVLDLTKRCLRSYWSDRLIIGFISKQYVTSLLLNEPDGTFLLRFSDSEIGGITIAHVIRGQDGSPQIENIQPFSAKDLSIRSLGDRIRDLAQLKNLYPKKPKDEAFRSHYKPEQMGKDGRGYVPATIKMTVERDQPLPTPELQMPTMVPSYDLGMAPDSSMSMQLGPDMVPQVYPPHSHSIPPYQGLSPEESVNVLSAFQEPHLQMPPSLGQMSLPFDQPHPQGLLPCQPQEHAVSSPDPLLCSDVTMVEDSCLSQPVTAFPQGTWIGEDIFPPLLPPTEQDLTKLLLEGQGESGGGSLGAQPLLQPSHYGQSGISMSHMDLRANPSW
Summary of the method: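 Luminescence from HiBiT-STAT6 complementing stably expressed LgBiT in HeLa clone 4.14 reports remaining STAT6 protein. Cells (5000/well) exposed to compound for 4-24 h at 37° C; read 0.5 h after Nano-Glo addition. 100% degradation window set with 50 μM terfenadine; percent degradation plotted against concentration.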

[1] = test system: Eotaxin-3 release in human whole blood stimulated with IL-4; test: Human Whole Blood Eotaxin-3 Assay (IL-4 stimulated eotaxin-3 release); assay type: cell-based; conditions: IL-4 stimulation, 48 h, values given for compounds with >80% Emax, geometric mean
Summary of the method: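 Eotaxin-3 (CCL26) release measured by MSD kit in plasma supernatant after 48 h IL-4 stimulation ([…]) of human whole blood. Compounds added in triplicate 4-fold dilutions 2 h before stimulation; 0.5% DMSO final, 37° C, 5% CO2.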

Row | DC50 (STAT6) [nM] | EC50 [1] [nM] | Compound
1 | 1.4 | 3.2 | CNc1ccn(-c2ccnc3c2cc([C@H](C)N2CC=C(c4c(C)cc(C(=O)N(C)C5CCC(N6CCN(Cc7ccc8c(c7)n(C)c(=O)n8C7CCC(=O)NC7=O)CC6)CC5)cc4F)CC2)n3C)c(=O)c1 (stereo partly drawn) [Example 3u238, N-(4-(4-((1-(2,6-dioxopiperidin-3-yl)-3-methyl-2-oxo-2,3-dihydro-1H-benzo[d]-imidazol-5-yl)methyl)piperazin-1-yl)cyclohexyl)-3-fluoro-N,5-dimethyl-4-(1-((S)-1-(1-methyl-4-(4-(methylamino)-2-oxopyridin-1 (2H)-yl)-1H-pyrrolo[2,3-b]pyridin-2-yl)ethyl)-1,2,3,6-tetrahydropyridin-4-yl)benzamide]
2 | 0.1 | 1.2 | CNc1cc(=O)n(-c2ccnc3c2cc([C@H](C)N2CC=C(c4c(C)cc(C(=O)N(C)c5ccc(N6CCN(Cc7ccc8c(c7)C7(CC7)C(=O)N8C7CCC(=O)NC7=O)CC6)nc5)cc4F)CC2)n3C)cc1F (stereo partly drawn) [Example 3u239, N-(6-(4-((1′-(2,6-dioxopiperidin-3-yl)-2′-oxospiro[cyclopropane-1,3′-indolin]-5′-yl)-methyl)piperazin-1-yl)pyridin-3-yl)-3-fluoro-4-(1-((S)-1-(4-(5-fluoro-4-(methylamino)-2-oxopyridin-1 (2H)-yl)-1-methyl-1H-pyrrolo[2,3-b]pyridin-2-yl)ethyl)-1,2,3,6-tetrahydropyridin-4-yl)-N,5-dimethyl-benzamide]
3 | 1.1 | 1.3 | CNc1cc(=O)n(-c2ccnc3c2cc([C@H](C)N2CC=C(c4c(C)cc(C(=O)N(C)c5ccc(N6CCC(O)(Cc7ccc8c(c7)C7(CC7)C(=O)N8C7CCC(=O)NC7=O)CC6)nc5)cc4F)CC2)n3C)cc1F (stereo partly drawn) [Example 3u240, N-(6-(4-((1′-(2,6-dioxopiperidin-3-yl)-2′-oxospiro[cyclopropane-1,3′-indolin]-5′-yl)methyl)-4-hydroxypiperidin-1-yl)pyridin-3-yl)-3-fluoro-4-(1-((S)-1-(4-(5-fluoro-4-(methylamino)-2-oxopyridin-1 (2H)-yl)-1-methyl-1H-pyrrolo[2,3-b]pyridin-2-yl)ethyl)-1,2,3,6-tetrahydropyridin-4-yl)-N,5-dimethylbenzamide]
4 | 0.1 | 0.2 | CNc1cc(=O)n(-c2ccnc3c2cc([C@H](C)N2CC=C(c4c(C)cc(C(=O)N(C)c5ccc(N6CCC(Cc7ccc8c(c7)n(C)c(=O)n8C7CCC(=O)NC7=O)CC6)nc5)cc4F)CC2)n3C)cc1F (stereo partly drawn) [Example 3u241, N-(6-(4-((1-(2,6-dioxopiperidin-3-yl)-3-methyl-2-oxo-2,3-dihydro-1H-benzo[d]-imidazol-5-yl)methyl)piperidin-1-yl)pyridin-3-yl)-3-fluoro-4-(1-((S)-1-(4-(5-fluoro-4-(methylamino)-2-oxopyridin-1 (2H)-yl)-1-methyl-1H-pyrrolo[2,3-b]pyridin-2-yl)ethyl)-1,2,3,6-tetrahydropyridin-4-yl)-N,5-dimethylbenzamide]
5 | 0.1 | 0.3 | CNc1ccn(-c2ccnc3c2cc(CN2CCC(c4c(F)cc(C(=O)N(C)c5ccc(C6CCN(Cc7ccc8c(c7)n(C)c(=O)n8C7CCC(=O)NC7=O)CC6)cc5)cc4F)CC2)n3C)c(=O)c1 (centres unmarked) [Example 3u244, N-(4-(1-((1-(2,6-dioxopiperidin-3-yl)-3-methyl-2-oxo-2,3-dihydro-1H-benzo[d]imidazol-5-yl)methyl)piperidin-4-yl)phenyl)-3,5-difluoro-N-methyl-4-(1-((1-methyl-4-(4-(methylamino)-2-oxopyridin-1 (2H)-yl)-1H-pyrrolo[2,3-b]pyridin-2-yl)methyl)piperidin-4-yl)benzamide]
6 | 0.1 | 0.1 | CNc1cc(=O)n(-c2ccnc3c2cc(CN2CCC(c4c(F)cc(C(=O)N(C)c5ccc(C6CCN(Cc7ccc8c(c7)n(C)c(=O)n8C7CCC(=O)NC7=O)CC6)cc5)cc4F)CC2)n3C)cc1F (centres unmarked) [Example 3u245, N-(4-(1-((1-(2,6-dioxopiperidin-3-yl)-3-methyl-2-oxo-2,3-dihydro-1H-benzo[d]imidazol-5-yl)methyl)piperidin-4-yl)phenyl)-3,5-difluoro-4-(1-((4-(5-fluoro-4-(methylamino)-2-oxopyridin-1 (2H)-yl)-1-methyl-1H-pyrrolo[2,3-b]pyridin-2-yl)methyl)piperidin-4-yl)-N-methylbenzamide]
7 | 0.04 | 0.3 | CNc1ccn(-c2ccnc3c2cc(CN2CC=C(c4c(C)cc(C(=O)N(C)c5ccc(C6CCN(Cc7ccc8c(c7)n(C)c(=O)n8C7CCC(=O)NC7=O)CC6)cc5)cc4F)CC2)n3C)c(=O)c1 (centres unmarked) [Example 3u247, N-(4-(1-((1-(2,6-dioxopiperidin-3-yl)-3-methyl-2-oxo-2,3-dihydro-1H-benzo[d]-imidazol-5-yl)methyl)piperidin-4-yl)phenyl)-3-fluoro-N,5-dimethyl-4-(1-((1-methyl-4-(4-(methyl-amino)-2-oxopyridin-1 (2H)-yl)-1H-pyrrolo[2,3-b]pyridin-2-yl)methyl)-1,2,3,6-tetrahydropyridin-4-yl)benzamide]
8 | 0.2 | 0.3 | CNc1ccn(-c2ccnc3c2cc(CN2CCC(c4c(C)cc(C(=O)N(C)c5ccc(C6CCN(Cc7ccc8c(c7)n(C)c(=O)n8C7CCC(=O)NC7=O)CC6)cc5)cc4F)CC2)n3C)c(=O)c1 (centres unmarked) [Example 3u248, N-(4-(1-((1-(2,6-dioxopiperidin-3-yl)-3-methyl-2-oxo-2,3-dihydro-1H-benzo[d]imidazol-5-yl)methyl)piperidin-4-yl)phenyl)-3-fluoro-N,5-dimethyl-4-(1-((1-methyl-4-(4-(methylamino)-2-oxopyridin-1 (2H)-yl)-1H-pyrrolo[2,3-b]pyridin-2-yl)methyl)piperidin-4-yl)benzamide]
9 | 0.6 | 1.4 | CNc1ccn(-c2ccnc3c2cc([C@H](C)N2CCC(c4c(C)cc(C(=O)N(C)c5ccc(C6CCN(Cc7ccc8c(c7)n(C)c(=O)n8C7CCC(=O)NC7=O)CC6)cc5)cc4F)CC2)n3C)c(=O)c1 (stereo partly drawn) [Example 3u249, N-(4-(1-((1-(2,6-dioxopiperidin-3-yl)-3-methyl-2-oxo-2,3-dihydro-1H-benzo[d]-imidazol-5-yl)methyl)piperidin-4-yl)phenyl)-3-fluoro-N,5-dimethyl-4-(1-((S)-1-(1-methyl-4-(4-(methyl-amino)-2-oxopyridin-1 (2H)-yl)-1H-pyrrolo[2,3-b]pyridin-2-yl)ethyl)piperidin-4-yl)benzamide]
10 | 0.1 | 0.4 | Cc1cc(C(=O)N(C)c2ccc(C3CCN(Cc4ccc5c(c4)n(C)c(=O)n5C4CCC(=O)NC4=O)CC3)cc2)cc(F)c1C1=CCN([C@@H](C)c2cc3c(-n4ccc5c(c4=O)CCN5)ccnc3n2C)CC1 (stereo partly drawn) [Example 3u250, N-(4-(1-((1-(2,6-dioxopiperidin-3-yl)-3-methyl-2-oxo-2,3-dihydro-1H-benzo[d]imidazol-5-yl)methyl)piperidin-4-yl)phenyl)-3-fluoro-N,5-dimethyl-4-(1-((S)-1-(1-methyl-4-(4-oxo-1,2,3,4-tetrahydro-5H-pyrrolo[3,2-c]pyridin-5-yl)-1H-pyrrolo[2,3-b]pyridin-2-yl)ethyl)-1,2,3,6-tetrahydropyridin-4-yl)benzamide]
